According to a melting point compilation (Tetko et al.; mined from patent text by program, amines drawn as free bases though some values may be those of a salt):

In the case of `CCCc1nc(/C=C/c2ccccc2)c(C(=O)OCC)n1Cc1cc2c(cc1Cl)OCO2`, the melting point is reported as 161 °C. For `NC(=O)N(O)C1C=C(c2cccc(Oc3ccccc3)c2)CC1` (single isomer, unassigned; (+)), the melting point was 139 to 141 °C. `COc1ccccc1NC(=O)Nc1ccc(CC(=O)OC(C)(C)C)cc1OC` gave a melting point of 132 to 134 °C. In the case of `COc1cc(Nc2c(C#N)cnc3cc(-c4ccc(C=O)cc4)ccc23)c(Cl)cc1Cl`, the melting point is reported as 248 to 251 °C. In the case of `COc1ccc(C(F)(F)F)cc1-n1c(=O)[nH]c2cc(C(F)(F)F)ccc21`, the melting point is reported as 226 °C. `C=Cn1cc(C(=O)O)c(=O)c2cc(Cl)c(N3CCNCC3)nc21` gave a melting point of 272 to 274 °C. Compound `C=CCOC(=O)c1ncn2c1[C@@H]1CCCN1C(=O)c1c(Cl)cccc1-2` has a melting point of 122 to 123 °C. `O=c1nc(-c2ccc(F)cc2)c2ccccc2[nH]1` showed a melting point of 294 to 298 °C. With `CNN(NC)C(=O)Nc1cccc2c1C(=O)c1c-2n[nH]c1-c1ccc(OC)s1` the melting point was 280 °C. `CCCN(CCC)CCc1ccc(OC)c2[nH]c(=O)[nH]c12` showed a melting point of 35 °C. In the case of `CC(C)(C)OC(=O)C(CSCc1ccc(-c2ccc(-c3cccc4c3oc3ccccc34)cc2)cc1)C(=O)O` (stereo not drawn), the melting point is reported as 205 to 206 °C. For `CCc1cc(C)c(Br)c(CC)c1-c1c(OC(=O)OC)c(C)nn(C)c1=O`, the melting point was 113 to 115 °C. Compound `CN(C)CCOc1ccc2cc3ncc(C#N)c(Nc4ccc(Cl)cc4Cl)c3cc2c1` has a melting point of 115 to 117 °C. For `CC(C)(C)OC(=O)C1CCN(Sc2ccncc2)CC1`, the melting point was 71 to 72 °C. Compound `O=C(O)COCOc1cc(Cl)cc(Cl)c1` has a melting point of 79 to 82 °C. With `C=CCCCCCCCCCOc1ccc(-c2ccc(OCCCCCCCCCCCBr)cc2)cc1` the melting point was 93 to 94 °C. With `CCCCc1nc2ccccc2n1-c1ccc(O)cc1` the melting point was 192 to 194 °C. Work on `O=C(O)c1ccc(OCCOc2ccccc2)cc1` yielded a melting point of 198 to 199 °C. For `Cc1c(CCCC=CC(=O)O)cccc1Cc1ccc(Cl)cc1`, the melting point was 115 °C. `CCN(CC1CCCC1)c1nc2c(cc1CN(Cc1cc(C(F)(F)F)cc(C(F)(F)F)c1)c1nnn(C)n1)c(C)nn2C` showed a melting point of 84 to 86 °C. For `CCC12OC1C(=O)C(Nc1ncnc3cc(OC)c(OC)cc13)=CC2=O` (stereo not drawn), the melting point was 202 to 204 °C. For `OC1CSC(Oc2cncc(-c3cccnc3F)c2)C(O)C1O` (stereo not drawn), the melting point was 193 to 196 °C. `O=C(OCc1ccccc1)c1ccc2[nH]ccc2c1` gave a melting point of 127 to 129 °C. `C#CCOc1cc(-c2ncnc(C)c2C)c(F)cc1Cl` gave a melting point of 131 to 133 °C. `O=C1CCC(O)(c2ccc(F)cc2)CC1` showed a melting point of 108 to 114 °C. With `C=C(C)Cn1c(=O)n(C)c(=O)c2c(SCCO)n(Cc3cccc4ccccc34)nc21` the melting point was 135 to 137 °C. In the case of `Cc1c(C)c2c(c(C)c1OCc1ccccc1)C(=O)CC(C)(COC(C)(C)C)O2` (stereo not drawn), the melting point is reported as 51 to 62 °C. With `CC1CC(=O)NN=C1c1ccc(-n2ccnc2)nc1` (stereo not drawn) the melting point was 140 °C. Work on `Cc1cc(O)n2nc(S(=O)(=O)Nc3ccccc3C(F)(F)F)nc2n1` yielded a melting point of 245 to 247 °C. `CCCCCC(CC(=O)Nc1cc(C(N)=O)ccc1C(C)(C)C)c1ccc(OCCCNS(C)(=O)=O)cc1OC` (stereo not drawn) gave a melting point of 77 to 79 °C. `Cc1nc2cc(NC(=O)c3cc4cc(F)ncc4n3Cc3cccc(F)c3)ccc2n1C` gave a melting point of 245 to 247 °C. For `COc1ccc(/C=N/Nc2nc(=O)[nH]cc2F)cc1`, the melting point was 202 to 208 °C. With `COc1cccc2c(C(=O)c3ccc(OC4CCCCC4N4CCCCC4)cc3)c(-c3ccc(OCCN4CCCC4)cc3)sc12` (stereo not drawn) the melting point was 66 to 69 °C. With `CCc1nc2c(N)nc3ccccc3c2n1CCCC#Cc1ccccn1` the melting point was 188 to 192 °C. `COc1cc2c(cc1O[Si](C)(C)C(C)(C)C)CN(C(=O)OC(C)(C)C)CC2` gave a melting point of 46 to 49 °C. With `O=C(Nc1ccc(C(=O)N2Cc3ccccc3Cc3ccccc32)cc1)c1cccnc1` the melting point was 217 to 220 °C. Compound `Cc1c(NC(=O)CC(C)(C)C)cc2c(c1C)OC(C)(C)C2(O)Cc1ccc(C(C)C)cc1` (stereo not drawn) has a melting point of 177 to 178 °C. With `COc1cc2oc(=O)c(CCN3CCN(c4ccccc4OC)CC3)c(C)c2cc1O` the melting point was 235 to 237 °C. In the case of `CCCCCCCCCCCCNC1=NC(N2CCOCC2)=NCN1`, the melting point is reported as 117 to 118 °C. For `O=C1N=c2cc(Cl)c(Cl)cc2=NC1=O`, the melting point was > 400 °C. Work on `CCOC(C)(C)C(=O)O[C@H]1C[C@H](O)C=C2C=C[C@H](C)[C@H](CC[C@@H]3C[C@@H](O)CC(=O)O3)[C@H]21` yielded a melting point of 132 °C. In the case of `NC(=O)COCc1nnc(S)s1`, the melting point is reported as 216 to 217 °C. With `Nc1nc(-c2cc(Cl)ccc2Cl)nc(N2CCC(O)CC2)n1` the melting point was 222 to 224 °C. Work on `O=C(O)c1cc(Cl)c(Cl)c2c1OCC(CO)O2` (stereo not drawn) yielded a melting point of 175 to 177 °C. Compound `O=Cc1cnn(-c2cccc(C(F)(F)F)c2)c1` has a melting point of 80 to 82 °C. Work on `Nc1cc(C(=O)O)cc(S(N)(=O)=O)c1-c1ccccc1` yielded a melting point of 232 to 237 °C. In the case of `O=C(c1ccc(Cl)cc1)c1ccc(CBr)cc1`, the melting point is reported as 103 to 104 °C. `CCOc1ccccc1[C@H]1O[C@H](CC(=O)O)C(=O)N(CC(C)C)c2ccc(Cl)cc21` (relative stereo) gave a melting point of 190 to 192 °C. With `Cc1ccccc1-c1c(C(=O)N(C)Cc2cc(C(F)(F)F)cc(C(F)(F)F)c2)c(=O)oc2ccccc12` the melting point was 130 to 131 °C. Compound `COc1cc(OC)c(C(=O)/C=C/C(=O)O)c(OC)c1` has a melting point of 151 to 153 °C. `CCCCc1nc(SCC)c2ccccc2c1Cc1ccc(C(=O)O)cc1` showed a melting point of 150 °C. `Nc1ncccc1C(=O)NCC1CCN(C[C@H]2COc3ccc(Cl)cc3O2)CC1` showed a melting point of 150 to 152 °C. `Cc1cc(Oc2cccc(C(F)(F)F)c2)nn1C(=O)Nc1ccccc1` gave a melting point of 53 to 54 °C. In the case of `CCCCCCc1cccc(N2CC(=O)NC(=O)N2)c1`, the melting point is reported as 95 to 99 °C. Work on `O=C(O)C1(c2ccccc2)CCN(Cc2ccccc2)CC1` yielded a melting point of 286 °C. Work on `O=C(O)C1=C(S(=O)(=O)c2ccccc2)CC2CC(=O)C12` (stereo not drawn) yielded a melting point of 205 to 207 °C. Work on `CC1(C)CCC(N2c3ccccc3Oc3ccc(Cl)cc32)=N1` yielded a melting point of 118 to 120 °C. `CCOc1nn2c(-c3ccccc3Br)nnc2c2ccccc12` showed a melting point of 157 to 158 °C. Compound `CCCCNc1c(C)cccc1C` has a melting point of 124 to 131 °C. With `OCCCCN1CCC(C(O)(c2ccc(F)cc2)c2ccc(F)cc2)CC1` the melting point was 130 to 131 °C. In the case of `CCn1c(C=NNC(N)=S)cnc1[N+](=O)[O-]`, the melting point is reported as 220 to 222 °C. `O=C1CCCc2cc(OCc3cncnc3)ccc21` showed a melting point of 146 to 147 °C. `Nc1ncnc2c1c(-c1cccc(F)c1)nn2Cc1oc2ccccc2c(=O)c1-c1ccccc1` showed a melting point of 244 to 247 °C. `COCOc1cc(/C=C/C(=O)/C=C/c2cc(OCOC)cc(OCOC)c2)cc(OCOC)c1` showed a melting point of 90 to 92 °C. In the case of `S=CN1CCC(C(c2ccccc2)c2ccccc2)CC1`, the melting point is reported as 152 to 154 °C. Work on `O=Cc1ccc(Cl)cc1C1(c2ccccc2F)OCCO1` yielded a melting point of 103 to 105 °C. In the case of `OCCCN1CCN(c2ccccc2)CC1`, the melting point is reported as 72 to 73 °C. Work on `CCCCCCCCCCCc1cccc(Oc2c(N)nc(N)nc2CC)c1` yielded a melting point of 97 to 99 °C. With `CS(=O)(=O)c1ccc(-c2cc(=O)n(C3CCCCC3)nc2-c2ccc(F)cc2)cc1` the melting point was 86 to 90 °C. `CCCc1c(C(=O)N(C)Cc2ccc3cc(O)ccc3c2)cnn1-c1ccccc1` showed a melting point of 138 to 141 °C. In the case of `COC(=O)c1ccccc1NCCCc1ccccc1`, the melting point is reported as 103 to 105 °C. With `O=C(O)c1ccc(-c2ccc(C(=O)O)cc2-c2nc3ccccc3[nH]2)c(-c2nc3ccccc3[nH]2)c1` the melting point was > 400 °C. For `CCCCCCCCCCCCn1nnc(C(=NOC)C(=O)Nc2c(OC)cc(OC)cc2OC)n1`, the melting point was 84 to 85 °C. In the case of `CC(C)(c1ccc(C(=O)Nc2cn3cc(Cl)ccc3n2)cc1)c1nnn[nH]1`, the melting point is reported as 266 to 267 °C. For `O=C(CCCN1CCOCC1)c1ccc2c(c1)Cc1cc(C(=O)CCCN3CCOCC3)ccc1O2`, the melting point was 110 to 112 °C. Work on `CS(=O)(=O)OCCc1ccc(NC(=O)OCc2ccccc2)cc1CCOS(C)(=O)=O` yielded a melting point of 58 to 60 °C. Work on `COc1ccc2cc(Oc3cnc(N)nc3N)c(C(C)C)cc2c1` yielded a melting point of 170 to 172 °C. With `CCCCCCCCn1nnc(C(C(=O)Nc2c(OC)cc(OC)cc2OC)c2ccccc2)n1` (stereo not drawn) the melting point was 113 to 116 °C. Compound `CS(=O)(=O)c1ccc(-c2c(-c3ccccc3)[nH]c3ccccc23)cc1` has a melting point of 239 to 241 °C. For `Cc1cc(-c2cnn(-c3ccccc3)c2)ccc1OC=C1C=CC=CC1n1nnn(C)c1=O` (stereo not drawn), the melting point was 152 to 153 °C. In the case of `CCCCCCCCOc1ccc(-c2ccc(-c3ccc4c(c3)C(CC)(CC)c3cc(-c5ccc(-c6ccc(OCCCCCCCC)cc6)cc5)ccc3-4)cc2)cc1`, the melting point is reported as 146 °C. In the case of `Cc1cnc2c(=O)[nH]c3ccc(Cl)cc3n12`, the melting point is reported as > 300 °C. Work on `O=[N+]([O-])c1ccc(OCCc2ccc(CCl)cn2)cc1` yielded a melting point of 77 to 78 °C. Compound `CCOc1nn(CCOc2c(CC)cccc2CC(=O)O)cc1C(=O)NCc1ccc(Cl)cc1Cl` has a melting point of 129 to 131 °C. `N#Cc1c(N2CCN(C(=O)c3cccs3)CC2)c2cc(F)cnc2[nH]c1=O` showed a melting point of 244 °C. Compound `COc1c(C)cc(C(=O)c2cc(-c3ccc(NC(C)=O)cc3)c(N3CCOCC3)s2)nc1C` has a melting point of 145 °C. Compound `COc1cccc(C2C=C(C)NC3=C2C(=O)CCC3)c1` (stereo not drawn) has a melting point of 164 to 167 °C. In the case of `O=c1ccoc(C(O)c2ccc3ccccc3c2)c1OCc1ccccc1` (stereo not drawn), the melting point is reported as 159 to 160 °C. Work on `Cc1c(C#N)sc(N=Nc2c(NCC(C)O)nc(NCC(C)O)c(C#N)c2C)c1C#N` (stereo not drawn) yielded a melting point of 268 to 269 °C. `COCc1nccn1CC(=O)c1ccc(-c2ccc(N3C[C@H](Cn4ccnn4)OC3=O)cc2F)cn1` showed a melting point of 78 to 80 °C. Compound `CCc1cccc(C)c1CNc1nc(C(=O)O)cn2c(C)c(C)nc12` has a melting point of 230 °C. For `CC(=O)NC(Cc1ccccc1)C(C)=O` (stereo not drawn), the melting point was 96 to 97 °C. `CCCCOc1n[nH]c(=O)n1C` showed a melting point of 77 °C. `Cn1nc(-c2ccc3c(c2)CCNCC3)ccc1=O` gave a melting point of 183 to 185 °C. `Clc1ccc(NN=Cc2ccc(Oc3nn(Cc4ccccc4)c4ccccc34)o2)nn1` showed a melting point of 200 to 202 °C. Compound `O=C1CCC(N2Cc3c(OCc4ccc(CN(CCC(F)(F)F)CCC(F)(F)F)cc4)cccc3C2=O)C(=O)N1` (stereo not drawn) has a melting point of 107 to 109 °C. In the case of `Cc1nc2c(N)nc3ccccc3c2n1CCCCS(C)=O` (stereo not drawn), the melting point is reported as 184 to 187 °C. Compound `O=C1Cc2cc3ccccc3nc2N1` has a melting point of 261 °C.
